US10226448B2, “3-(1H-pyrrolo[3,2-C]pyridin-2-yl)-1H-pyrazolo[3,4-B]pyridines and therapeutic uses thereof” (Samumed, LLC, priority 2015, dated 2019)

How the values were obtained:
Assay type in all cases: cell-based
IL-6 in THP-1 cells = test: IL-6 inhibition in LPS-stimulated THP-1 human monocyte cells (HTRF); settings: for EC50: IL-6 inhibition, LPS-stimulated THP-1 cells, HTRF, 10-point dose-response starting from 10 μM; for inhibition at 10 µM: THP-1, read-out: percentage in parentheses beside EC50 >10
Method: Compound Screening: THP-1 cells were cultured in basal media with 1% FBS for 24 hours before the start of the assay. […] THP-1 cells were plated at 5000 cells/well in the 384-well plates and incubated at 37° C. for 2 h. 500 ng/mL of LPS was added after 2 hours and cells were incubated for another 22 hours at 37° C. Plates were spun in a centrifuge for 1 minute at […] and a mixture of anti-IL6 XL665, and anti-IL6 Cryptate diluted in reconstitution buffer (Cisbio Inc.) was added to each well. Following incubation for 3 hrs at room temperature, Homogeneous Time-Resolved Fluorescence (HTRF) was measured using the Envision (Perkin Elmer) at 665 nm and […]. The ratio of fluorescence at 665 nm to 620 nm was used as a readout for IL6 quantification. All samples were processed in duplicate. Readings were normalized to DMSO treated cells and normalized activities were utilized for EC50 calculations using the dose-response log (inhibitor) vs. response variable slope (four parameters) nonlinear regression feature available in GraphPad Prism 5.0 (or Dotmatics).

[1] = test system: primary human mesenchymal stem cells (hMSCs); test: Induction of chondrogenesis in primary human mesenchymal stem cells (chondrogenic nodules, Rhodamine B / Nile Red); settings: 6 days; for EC50: concentration required to induce 50% levels of chondrogenesis vs TGF-β3, read-out: Conc (nM) of 50% TGF-β3 activity; for Emax: relative to TGF-β3 (10 ng/mL) positive control, read-out: Max. Activity as % TGF-β3 activity
Source text: Representative compounds were screened using primary human mesenchymal stem cells (hMSCs) to determine their ability to induce chondrogenesis (process by which cartilage is developed).
Human Mesenchymal Stem Cell Culture: Primary human mesenchymal stem cells (hMSCs) were purchased from Lonza (Walkersville, Md.) and expanded in Mesenchymal Stem Cell Growth Media (Lonza). Cells between passage 3 and 6 were used for the experiments.
To image chondrogenic nodules, the cells were fixed using 4% formaldehyde (Electron Microscopy Sciences), and stained with 2 μg/mL Rhodamine B (Sigma-Aldrich) and 20 μM Nile Red (Sigma-Aldrich) [Johnson K., et. al, A Stem Cell-Based Approach to Cartilage Repair, Science, (2012). […] Number of nodules in each well was normalized to the average of 3 DMSO treated wells on the same plate using Excel (Microsoft Inc.). The normalized averages (fold change over DMSO) of 3 replicate wells for each compound concentration were calculated. Due to solubility limitations of some of the compounds, curve fitting was incomplete leading to inaccurate EC50 determinations.
Using TGF-β3 as a positive control, the concentration of representative compounds required to induce 50% levels of chondrogenesis is reported. In addition, the maximum activity of each compound and the respective dose that each compound reached maximum chondrogenesis activity is reported.

SW480 colon cancer cells = test: Cell viability assay (CellTiter-Blue) in SW480 colon cancer cells; settings: Homo sapiens; for EC50: 96 h, SW480 cell viability, four days, CellTiter-Blue
Method: Representative compounds were screened using the following assay procedure to assess the effect on cell viability as described below.
Approximately 2×10^3 SW480 colon cancer cells were seeded into each well and allowed to incubate in the presence or absence of compound for four days at 37° C./5% CO2. Eight replicates of DMSO-treated cells served as controls and cells treated with compound were performed in duplicate.
After incubation, 20 μL of CellTiter-Blue (Promega) was added to each well allowed to incubate for approximately 3 hours. This reagent was a buffered solution which contains resazurin, metabolically active cells were able to reduce rezarurin (blue) into resorufin (pink) which was highly fluorescent. This measured fluorescence was used as a readout for cell viability.

[2] = test system: LL29 cells (primary human fibroblasts derived from IPF patients), α-smooth muscle actin; test: Inhibition of the fibrotic process: αSMA staining in TGF-β1 treated primary human fibroblasts from IPF patients (LL29 cells); settings: Fibroblast; for EC50: 96 h, LL29 cells, TGF-β1 20 ng/mL, 4 days, % αSMA positive cells; for inhibition at 10 µM: read-out: percent inhibition at 10 μM
Method: Representative compounds were screened using primary human fibroblasts (derived from IPF patients) treated with TGF-β1 to determine their ability to inhibit the fibrotic process.
LL29 cells are plated at 1,500 cells/well in 80 μL/well F12 medium supplemented with 1% Fetal Bovine Serum. […] Wells treated with TGF-β1 and containing DMSO were used as controls. […] Following incubation for 4 days, SYTOX green nucleic acid stain (Life Technologies [Thermo Fisher Scientific]) was added to the wells at a final concentration of 1 μM and incubated at room temperature for 30 min.

[3] = test system: Wnt activity (Sp5-Luc reporter, TCF/LEF binding sites) in SW480 colon carcinoma cells; test: Wnt activity screening assay: Sp5-Luc reporter gene assay in SW480 cells; settings: Homo sapiens; for EC50: Sp5-Luc reporter, SW480 cells, overnight incubation
Source text: The screening assay for Wnt activity is described as follows. Reporter cell lines can be generated by stably transducing cancer cell lines (e.g., colon cancer) or primary cells (e.g., IEC-6 intestinal cells) with a lentiviral construct that includes a Wnt-responsive promoter driving expression of the firefly luciferase gene.
SW480 colon carcinoma cells were transduced with a lentiviral vector expressing luciferase with a human Sp5 promoter consisting of a sequence of eight TCF/LEF binding sites. SW480 cells stably expressing the Sp5-Luc reporter gene and a hygromycin resistance gene were selected by treatment with 150 μg/mL of hygromycin for 7 days. These stably transduced SW480 cells were expanded in cell culture and used for all further screening activities. […] For Sp5-Luc reporter gene assays, the cells were plated at 4,000 cells/well in 384-well plates with medium containing 1% fetal bovine serum and incubated overnight at 37° C. and 5% CO2. Following incubation, 20 μl of BrightGlo luminescence reagent (Promega) was added to each well of the 384-well assay plates. The plates were placed on an orbital shaker for 2 min and then luminescence was quantified using the Envision (Perkin Elmer) plate reader. Readings were normalized to DMSO only treated cells, and normalized activities were utilized for EC50 calculations using the dose-response log (inhibitor) vs. response variable slope (four parameters) nonlinear regression feature available in GraphPad Prism 5.0 (or Dotmatics).

[4] = SW480, read-out: percent inhibition at 10 μM

SMILES	EC50 (IL-6 in THP-1 cells) [nM]	EC50 [1] [nM]	EC50 (SW480 colon cancer cells) [nM]	EC50 [3] [nM]	Emax [1] [%]	EC50 [2] [nM]	inhibition at 10 µM (IL-6 in THP-1 cells) [%]	inhibition at 10 µM [2] [%]	inhibition at 10 µM (SW480 colon cancer cells; [4]) [%]	inhibition at 10 µM [3, 4] [%]
O=C(Nc1cncc(-c2cnc3[nH]nc(-c4cc5c(-c6ccc(F)cc6)nccc5[nH]4)c3c2)c1)C1CCC1 [Compound 49, N-(5-(3-(4-(4-Fluorophenyl)-1H-pyrrolo[3,2-c]pyridin-2-yl)-1H-pyrazolo[3,4-b]pyridin-5-yl)pyridin-3-yl)cyclobutanecarboxamide]	1480	10	595	1170	208	360				
Nc1cncc(-c2cnc3[nH]nc(-c4cc5c(-c6ccccc6F)nccc5[nH]4)c3c2)c1 [Compound 59, 5-(3-(4-(2-Fluorophenyl)-1H-pyrrolo[3,2-c]pyridin-2-yl)-1H-pyrazolo[3,4-b]pyridin-5-yl)pyridin-3-amine]	198	30	762	197	86	2280				
CCNCc1cncc(-c2cnc3[nH]nc(-c4cc5c(-c6ccccc6F)nccc5[nH]4)c3c2)c1 [Compound 62, N-((5-(3-(4-(2-Fluorophenyl)-1H-pyrrolo[3,2-c]pyridin-2-yl)-1H-pyrazolo[3,4-b]pyridin-5-yl)pyridin-3-yl)methyl)ethanamine]	1890		923	1080	52	2370				
O=C(Nc1cncc(-c2cnc3[nH]nc(-c4cc5c(-c6ccccc6F)nccc5[nH]4)c3c2)c1)c1ccccc1 [Compound 67, N-(5-(3-(4-(2-Fluorophenyl)-1H-pyrrolo[3,2-c]pyridin-2-yl)-1H-pyrazolo[3,4-b]pyridin-5-yl)pyridin-3-yl)benzamide]	> 10000	10	1620	1980	101	> 10000	41.4	6.3		
CC(C)Nc1cncc(-c2cnc3[nH]nc(-c4cc5c(-c6ccccc6F)nccc5[nH]4)c3c2)c1 [Compound 68, 5-(3-(4-(2-Fluorophenyl)-1H-pyrrolo[3,2-c]pyridin-2-yl)-1H-pyrazolo[3,4-b]pyridin-5-yl)-N-isopropylpyridin-3-amine]	235	10	959	435	76	1890				
CCCC(=O)Nc1cncc(-c2cnc3[nH]nc(-c4cc5c(-c6ccccc6F)nccc5[nH]4)c3c2)c1 [Compound 73, N-(5-(3-(4-(2-Fluorophenyl)-1H-pyrrolo[3,2-c]pyridin-2-yl)-1H-pyrazolo[3,4-b]pyridin-5-yl)pyridin-3-yl)butyramide]	36		348	472	53	2660				
O=C(Nc1cncc(-c2cnc3[nH]nc(-c4cc5c(-c6ccccc6F)nccc5[nH]4)c3c2)c1)C1CCCC1 [Compound 78, N-(5-(3-(4-(2-Fluorophenyl)-1H-pyrrolo[3,2-c]pyridin-2-yl)-1H-pyrazolo[3,4-b]pyridin-5-yl)pyridin-3-yl)cyclopentanecarboxamide]	505		651	960	51	> 10000		12.7		

Continued, in another order:

EC50 (IL-6 in THP-1 cells) [nM]	EC50 [1] [nM]	EC50 (SW480 colon cancer cells) [nM]	EC50 [3] [nM]	SMILES	Emax [1] [%]	EC50 [2] [nM]	inhibition at 10 µM (IL-6 in THP-1 cells) [%]	inhibition at 10 µM [2] [%]	inhibition at 10 µM (SW480 colon cancer cells; [4]) [%]	inhibition at 10 µM [3, 4] [%]
1260	900	346	854	Fc1ccc(-c2nccc3[nH]c(-c4n[nH]c5ncc(-c6cncc(CNCc7ccccc7)c6)cc45)cc23)cc1 [Compound 52, N-Benzyl-1-(5-(3-(4-(4-fluorophenyl)-1H-pyrrolo[3,2-c]pyridin-2-yl)-1H-pyrazolo[3,4-b]pyridin-5-yl)pyridin-3-yl)methanamine]	179	458				
53	30	450	321	O=C(Nc1cncc(-c2cnc3[nH]nc(-c4cc5c(-c6ccccc6F)nccc5[nH]4)c3c2)c1)C1CC1 [Compound 76, N-(5-(3-(4-(2-Fluorophenyl)-1H-pyrrolo[3,2-c]pyridin-2-yl)-1H-pyrazolo[3,4-b]pyridin-5-yl)pyridin-3-yl)cyclopropanecarboxamide]	78	2700				
> 10000		2080	4060	Fc1ccccc1-c1nccc2[nH]c(-c3n[nH]c4ncc(-c5cncnc5)cc34)cc12 [Compound 83, 3-(4-(2-Fluorophenyl)-1H-pyrrolo[3,2-c]pyridin-2-yl)-5-(pyrimidin-5-yl)-1H-pyrazolo[3,4-b]pyridine]	36	1210	28.3			
> 10000	30	> 10000	> 10000	Nc1cncc(-c2cnc3[nH]nc(-c4cc5c(-c6ccncc6)nccc5[nH]4)c3c2)c1 [Compound 115, 5-(3-(4-(Pyridin-4-yl)-1H-pyrrolo[3,2-c]pyridin-2-yl)-1H-pyrazolo[3,4-b]pyridin-5-yl)pyridin-3-amine]	53	> 10000	9.7	53.8	10.1	9.3
484	900	1160	4020	c1cncc(-c2cnc3[nH]nc(-c4cc5c(N6CCCCC6)nccc5[nH]4)c3c2)c1 [Compound 172, 3-(4-(Piperidin-1-yl)-1H-pyrrolo[3,2-c]pyridin-2-yl)-5-(pyridin-3-yl)-1H-pyrazolo[3,4-b]pyridine]	169	1330				
2130		3700	3410	CC(C)Nc1cncc(-c2cnc3[nH]nc(-c4cc5c(N6CCCCC6)nccc5[nH]4)c3c2)c1 [Compound 180, N-Isopropyl-5-(3-(4-(piperidin-1-yl)-1H-pyrrolo[3,2-c]pyridin-2-yl)-1H-pyrazolo[3,4-b]pyridin-5-yl)pyridin-3-amine]	34	247				
